The values that follow come from patent US20250075041A1, “COMPOSITIONS FOR SALTWATER-STABLE HYDROGEL ADHESIVES AND METHODS OF USE THEREOF” (Washington University, priority 2023, published 2025).

The nature of the data set: Solubility of copolymers and monomer. It counts as physicochemical.

Nb-TEG-ZnTPP [compound 22]: the “solubility in H2O” value is listed as “not soluble in H2O”.
